Measurements reported in US20260274832A1, “COMPOUNDS AND THEIR USE IN TREATING CANCER” (ASTRAZENECA AB, priority 2023, published 2026).

Experiments:
[1] = target: T1, AR (AR-full length) in LNCaP cells (Homo sapiens, UniProt P10275, T878A); assay: LNCaP Androgen Receptor Imaging Assay (immunofluorescence of endogenous nuclear AR); type: cell-based; settings: 24 h incubation; for DC50: concentration giving 50% of maximum degradation of AR per curve fit, single experiment or average of two or more; for Dmax: LNCaP; for Dmax / LNCaP AR Degradation Dmax: maximum degradation observed, normalized as % of positive control (prior art AR PROTAC at 3 μM)
T1 construct: the prostate cancer cell line LNCaP (expressing AR-full length); endogenous in cells; host or cells: LNCaP
Description: This cell-based imaging assay uses immuno-fluorescence to measure endogenous nuclear AR staining in the prostate cancer cell line LNCaP (expressing AR-full length). The purpose of the assay is to identify compounds that regulate AR protein level according to the protocol laid out in the steps below.
(§1) All work was performed in a sterile tissue culture hood up to the point of cell fixation. LNCaP cells were cultured at 6-8×10^6 per T175 flask and split every 3-4 days. Medium: RPMI (R7638, VWR Sigma) containing 10% FCS and 1% glutamine. Cells were plated in black wall transparent bottom plates at a density of 12,000 cells (Cedex™ Cell counter, Beckmann & Coulter), 40 μL per well, using a Multidrop (ThermoFisher).
(§2) Cells were dosed with test compound diluted in DMSO using an Echo 555/655™ (Labcyte) and the final concentration of DMSO in the well was 0.3%. A neutral control (DMSO) and a positive AR degrader control at 3 μM (a prior art AR PROTAC) were included. The Echo uses acoustic technology to perform direct microplate-to-microplate transfers of DMSO compound solutions to assay plates. The system can be programmed to transfer volumes as low as 2.5 nL in multiple increments between microplates and in so doing generates a serial dilution of compound in the assay plate which is then back-filled to normalise the DMSO concentration across the dilution range. Compounds were dispensed as a 12 point dose response with indicated concentrations. The plates were incubated at 37° C./5% CO2 for 24 h and then fixed and stained as below. 40 μL of 8% paraformaldehyde solution (v/v) in phosphate buffered saline (PBS) was added on top of the media already in the well using a Multidrop to fix plates giving a final concentration of 4% PFA (v/v) for 20-30 minutes (keep in fume hood to minimise PFA exposure). After 20-30 mins, the plates were washed with 3×PBS using a BioTek washer in a fume hood. A shake out of remaining volume in the well was performed to ensure best removal of remaining PBS. At this plates could be stored in PBS after washing for at least 3 days at 4° C., if so, PBS was removed by the BioTek before continuing with the next step.
(§3) The cells were incubated with a Mouse monoclonal Anti-AR antibody AR441 (DAKO M3562) (1:1000), diluted in modified blocking buffer (PBS+1% BSA+0.1% TritonX); 15 μL/well for 2 h at RT. The plates were then washed with 3×PBS using a BioTek washer. A shake out of remaining volume in the well was performed to ensure best removal of remaining PBS. Cells were then incubated with Goat anti-mouse secondary antibody 488 (Invitrogen A11001) (1:500) and nuclear stain, DRAQ5 (Abcam Ab108410) (1:2000) diluted in modified blocking buffer for 45 mins at room temperature 15 μL/well. Plates are then washed with 3×PBS using a BioTek washer, without final aspiration, and sealed with black plate seals. Plates could be stored after staining for three days at 4° C. before read if required.
(§4) Plates are read using a Cellomics Cellinsight to measure the Androgen Receptor level in each well. The data is exported into Genedata to perform curve fitting analysis. All data are normalized as % of positive control and the BellFit method automatically determines the correct fit method based on the presence of hook effect, choosing the BellFit when there is a hook and HillFit when there is no hook. Down-regulation of AR is expressed as a DC50 value and determined by calculation of the concentration of compound that is required to give 50% of maximum degradation of AR as per the curve fit for that compound. The maximum degradation observed for each compound is expressed as Dmax. The AR degradation data for compounds is shown in the table below and may be a result from a single experiment or an average of two or more experiments.

[2] = target: T2, AR (L702H) in LNCaP cells (Homo sapiens, UniProt P10275, L702H/T878A); assay: LNCaP Androgen Receptor L702H Imaging Assay (LNCaP cells engineered by CRISPR/Cas9); type: cell-based; settings: LNCaP cells with AR L702H mutation, 24 h incubation; for DC50: concentration giving 50% of maximum degradation of AR (L702H) per curve fit; for Dmax: LNCaP; for Dmax / LNCaP AR (L702H) Degradation Dmax: maximum degradation observed, normalized as % of positive control
T2 construct: engineered to introduce the mutation L702H into the AR gene using CRISPR/Cas9; endogenous in cells; host or cells: LNCaP cells edited by CRISPR/Cas9 at the AR gene
Description: as §1, §2, §3, §4
At this stage, anti-androgen therapy is largely ineffective due to AR amplification, overexpression or point mutation. One of the point mutations observed in patient populations is L702H in the AR Ligand Binding Domain. LNCAP cells have been engineered to introduce the mutation L702H into the AR gene using CRISPR/Cas9. The previously described imaging-based AR assay will monitor nuclear AR (L702H) levels in these cells to identify compounds that regulate AR (L702H). […]

T1 sequence (P10275 whole entry T878A): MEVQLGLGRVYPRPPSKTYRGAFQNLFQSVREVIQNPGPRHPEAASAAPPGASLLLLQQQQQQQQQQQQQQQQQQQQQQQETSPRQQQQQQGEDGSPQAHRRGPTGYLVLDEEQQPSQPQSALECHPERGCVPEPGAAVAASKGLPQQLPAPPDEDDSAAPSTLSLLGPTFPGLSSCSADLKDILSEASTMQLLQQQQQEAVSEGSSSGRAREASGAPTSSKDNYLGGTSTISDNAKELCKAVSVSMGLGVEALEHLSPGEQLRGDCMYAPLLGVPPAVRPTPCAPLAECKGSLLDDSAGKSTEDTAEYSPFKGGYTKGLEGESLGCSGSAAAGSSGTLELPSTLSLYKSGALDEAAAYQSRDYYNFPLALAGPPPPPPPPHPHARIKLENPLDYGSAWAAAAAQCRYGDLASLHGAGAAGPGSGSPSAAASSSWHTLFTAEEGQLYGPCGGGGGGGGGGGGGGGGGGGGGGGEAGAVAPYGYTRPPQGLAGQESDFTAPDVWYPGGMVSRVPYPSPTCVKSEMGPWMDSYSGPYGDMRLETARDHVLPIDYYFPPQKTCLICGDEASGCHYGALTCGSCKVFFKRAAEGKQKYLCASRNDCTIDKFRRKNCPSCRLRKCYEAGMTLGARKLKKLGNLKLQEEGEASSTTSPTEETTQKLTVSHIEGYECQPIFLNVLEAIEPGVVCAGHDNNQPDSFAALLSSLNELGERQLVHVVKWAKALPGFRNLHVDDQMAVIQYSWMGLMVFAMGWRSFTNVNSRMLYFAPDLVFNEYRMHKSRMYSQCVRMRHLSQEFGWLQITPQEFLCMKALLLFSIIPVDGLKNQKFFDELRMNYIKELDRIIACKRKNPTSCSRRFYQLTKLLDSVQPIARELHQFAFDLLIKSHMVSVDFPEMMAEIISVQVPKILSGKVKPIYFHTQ
T1 sequence (Q96SW2 whole entry partner): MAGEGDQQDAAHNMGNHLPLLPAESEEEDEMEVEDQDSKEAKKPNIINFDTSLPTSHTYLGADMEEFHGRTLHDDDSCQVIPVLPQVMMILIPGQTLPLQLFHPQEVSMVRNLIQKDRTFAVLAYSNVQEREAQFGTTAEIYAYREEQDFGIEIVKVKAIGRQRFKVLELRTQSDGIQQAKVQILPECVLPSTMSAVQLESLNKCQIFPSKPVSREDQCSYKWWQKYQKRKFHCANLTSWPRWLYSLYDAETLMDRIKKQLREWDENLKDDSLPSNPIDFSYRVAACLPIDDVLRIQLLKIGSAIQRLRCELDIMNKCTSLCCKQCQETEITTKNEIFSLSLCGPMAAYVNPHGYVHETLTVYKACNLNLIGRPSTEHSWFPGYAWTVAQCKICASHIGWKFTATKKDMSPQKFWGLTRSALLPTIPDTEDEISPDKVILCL
T2 sequence (P10275 whole entry L702H/T878A): as the sequence (P10275 whole entry T878A) above, with L702H counted along it
T2 sequence (Q96SW2 whole entry partner): as the sequence (Q96SW2 whole entry partner) above

| DC50 [1] [nM] | Dmax [1] [%] | DC50 [2] [nM] | Dmax [2] [%] | LNCaP AR Degradation Dmax [1] [%] | LNCaP AR (L702H) Degradation Dmax [2] [%] | Structure (SMILES) |
| --- | --- | --- | --- | --- | --- | --- |
| 37 | 101 | 71 | 96 | – | – | N#Cc1c[nH]c2c(N3CCC(c4ccc(N5CCC(CN6CCN(c7cc8c(cc7F)C(=O)N(C7CCC(=O)NC7=O)C8=O)CC6)CC5)cc4)CC3)ccc(Cl)c12 (stereo not drawn) [Example 51, 4-Chloro-7-(4-{4-[4-({4-[2-(2,6-dioxopiperidin-3-yl)-6-fluoro-1,3-dioxo-2,3-dihydro-1H-isoindol-5-yl]piperazin-1-yl}methyl)piperidin-1-yl]phenyl}piperidin-1-yl)-1H-indole-3-carbonitrile] |
| 1 | 107 | 1 | 109 | – | – | N#Cc1c[nH]c2c(N3CCC(NC(=O)c4c(F)cc(N5CCC(CN6CCC(n7ccc8c(N9CCC(=O)NC9=O)cccc87)CC6)CC5)cc4F)CC3)ccc(Cl)c12 [Example 175, N-[1-(4-Chloro-3-cyano-1H-indol-7-yl)piperidin-4-yl]-4-[4-({4-[4-(2,4-dioxo-1,3-diazinan-1-yl)-1H-indol-1-yl]piperidin-1-yl}methyl)piperidin-1-yl]-2,6-difluorobenzamide] |
| 93 | – | 67 | – | 85 | 75 | N#Cc1c[nH]c2c(N3CCCC(c4ccc(N5CCC(CN6CCC(n7ccc8c(N9CCC(=O)NC9=O)cccc87)CC6)CC5)nn4)C3)ccc(Cl)c12 (single isomer, unassigned) [Example 122, 4-Chloro-7-[(3S*)-3-{6-[4-({4-[4-(2,4-dioxo-1,3-diazinan-1-yl)-1H-indol-1-yl]piperidin-1-yl}methyl)piperidin-1-yl]pyridazin-3-yl}piperidin-1-yl]-1H-indole-3-carbonitrile] |
| 6 | 99 | 6 | 100 | – | – | N#Cc1c[nH]c2c(N3CCC(c4ccc(N5CCC(CN6CCN(c7ccc8c(c7)CN(C7CCC(=O)NC7=O)C8=O)CC6)CC5)cc4)CC3)ccc(Cl)c12 (stereo not drawn) [Example 1, 4-Chloro-7-(4-{4-[4-({4-[2-(2,6-dioxopiperidin-3-yl)-1-oxo-2,3-dihydro-1H-isoindol-5-yl]piperazin-1-yl}methyl)piperidin-1-yl]phenyl}piperidin-1-yl)-1H-indole-3-carbonitrile] |
| 4 | 81 | 9 | 79 | – | – | N#Cc1c[nH]c2c(N3CCC(NC(=O)c4ccc(N5CCC(CN6CCN(c7ccc(C(=O)NC8CCC(=O)NC8=O)c(F)c7)CC6)CC5)cc4F)CC3)ccc(Cl)c12 (stereo not drawn) [Example 154] |
| 13 | – | 40 | – | 101 | 90 | N#Cc1n[nH]c2c(N3CCOC(c4ccc(N5CCC(CN6CCC(n7ccc8c(N9CCC(=O)NC9=O)cccc87)CC6)CC5)cc4)C3)ccc(Cl)c12 (single isomer, unassigned) [Example 120, 4-Chloro-7-[(2R*)-2-{4-[4-({4-[4-(2,4-dioxo-1,3-diazinan-1-yl)-1H-indol-1-yl]piperidin-1-yl}methyl)piperidin-1-yl]phenyl}morpholin-4-yl]-1H-indazole-3-carbonitrile] |
| 27 | 100 | 38 | 102 | – | – | N#Cc1n[nH]c2c(N3CCC(c4ccc(N5CCC(CN6CCC(n7ccc8c(N9CCC(=O)NC9=O)cccc87)CC6)CC5)cc4)CC3)ccc(Cl)c12 [Example 146, 4-Chloro-7-(4-{4-[4-({4-[4-(2,4-dioxo-1,3-diazinan-1-yl)-1H-indol-1-yl]piperidin-1-yl}methyl)piperidin-1-yl]phenyl}piperidin-1-yl)-1H-indazole-3-carbonitrile] |
| 6 | 88 | 5 | 97 | – | – | N#Cc1c[nH]c2c(N3CCC(c4ccc(N5CCC(N6CCN(c7ccc8c(c7)CN(C7CCC(=O)NC7=O)C8=O)CC6)CC5)cc4)CC3)ccc(Cl)c12 (stereo not drawn) [Example 110, 4-Chloro-7-{4-[4-(4-{4-[2-(2,6-dioxopiperidin-3-yl)-1-oxo-2,3-dihydro-1H-isoindol-5-yl]piperazin-1-yl}piperidin-1-yl)phenyl]piperidin-1-yl}-1H-indole-3-carbonitrile] |
| 1 | 103 | 1 | 108 | – | – | N#Cc1c[nH]c2c(N3CCC(NC(=O)c4ccc(N5CCC(CN6CCC(n7ccc8c(N9CCC(=O)NC9=O)cccc87)CC6)CC5)nn4)CC3)ccc(Cl)c12 [Example 179, N-[1-(4-Chloro-3-cyano-1H-indol-7-yl)piperidin-4-yl]-6-[4-({4-[4-(2,4-dioxo-1,3-diazinan-1-yl)-1H-indol-1-yl]piperidin-1-yl}methyl)piperidin-1-yl]pyridazine-3-carboxamide] |

| Structure (SMILES) | DC50 [1] [nM] | Dmax [1] [%] | DC50 [2] [nM] | Dmax [2] [%] | LNCaP AR Degradation Dmax [1] [%] | LNCaP AR (L702H) Degradation Dmax [2] [%] |
| --- | --- | --- | --- | --- | --- | --- |
| COc1nc(N2CCN(CCCCOc3ccc(C4CCN(c5ccc(C)c6c(C#N)c[nH]c56)CC4)cc3)CC2)cc2c1C(=O)N(C1CCC(=O)NC1=O)C2 (stereo not drawn) [Example 31, 7-{4-[4-(4-{4-[2-(2,6-Dioxopiperidin-3-yl)-4-methoxy-3-oxo-2,3-dihydro-1H-pyrrolo[3,4-c]pyridin-6-yl]piperazin-1-yl}butoxy)phenyl]piperidin-1-yl}-4-methyl-1H-indole-3-carbonitrile] | 8 | 94 | 22 | 88 | – | – |
| Cc1ccc(N2CCC(c3ccc(OCCCCN4CCC(n5ccc6c(N7CCC(=O)NC7=O)cccc65)CC4)cc3)CC2)c2[nH]cc(C#N)c12 [Example 29, 7-{4-[4-(4-{4-[4-(2,4-Dioxo-1,3-diazinan-1-yl)-1H-indol-1-yl]piperidin-1-yl}butoxy)phenyl]piperidin-1-yl}-4-methyl-1H-indole-3-carbonitrile] | 79 | 94 | 60 | 74 | – | – |
| Cc1ccc(N2CCC(c3ccc(OCCCCN4CCN(c5ccc6c(c5)C(=O)N(C5CCC(=O)NC5=O)C6=O)CC4)cc3)CC2)c2[nH]cc(C#N)c12 (stereo not drawn) [Example 56, 7-{4-[4-(4-{4-[2-(2,6-Dioxopiperidin-3-yl)-1,3-dioxo-2,3-dihydro-1H-isoindol-5-yl]piperazin-1-yl}butoxy)phenyl]piperidin-1-yl}-4-methyl-1H-indole-3-carbonitrile] | 61 | 101 | 357 | 94 | – | – |
